Laboratory results: US8153821B2, “Compounds” (priority 2008, dated 2012)
Like-named read-outs stand apart in the source and are kept apart here.

Legend:
rat native α7 receptors = biological target: T1, rat native α7 receptors (Rattus norvegicus, UniProt Q05941); experiment: [3H]MLA binding, rat hippocampal membranes
T1 construct: rat native α7 receptors in rat hippocampal membranes; from tissue; host or cells: rat hippocampus (female Sprague-Dawley)
Protocol: Rats (female, Sprague-Dawley), weighing 150-250 g, were maintained on a 12 h light/dark cycle and were allowed free access to water and food supplied by PMI Nutrition International, Inc. Animals were anesthetized with 70% CO2, and then decapitated. Brains were removed and placed on an ice-cold platform. The hippocampus was removed and placed in 10 volumes (weight:volume) of ice-cold preparative buffer (137 mM NaCl, 10.7 mM KCl, 5.8 mM KH2PO4, 8 mM Na2HPO4, 20 mM HEPES (free acid), 5 mM iodoacetamide, 1.6 mM EDTA, pH 7.4); PMSF, dissolved in methanol to a final concentration of 100 μM, was added and the tissue suspension was homogenized by Polytron. […] Protein was determined by the method of Lowry et al., J. Biol. Chem. 193: 265 (1951), using bovine serum albumin as the standard.
The binding of [^3H]MLA was measured using a modification of the methods of Davies et al., Neuropharmacol. […] The binding of [^3H]MLA was determined using a 2 h incubation at 21° C. […] Non-specific binding was determined by inclusion of 50 μM non-radioactive MLA in selected wells.
The inhibition of [^3H]MLA binding by test compounds was determined by including seven different concentrations of the test compound in selected wells. […] Inhibition constants (Ki values), reported in nM, were calculated from the IC50 values using the method of Cheng et al., Biochem. Pharmacol. 22: 3099-3108 (1973).

[1] = biological target: T2, human native ganglion-type nicotinic receptors (likely α3β4) (Homo sapiens, UniProt P30926+P32297); experiment: [3H]epibatidine binding, SH-SY5Y membranes
T2 construct: human native ganglion-type nicotinic receptors (likely α3β4); endogenous in cells; host or cells: SH-SY5Y
T2 sequence (P30926 22-498): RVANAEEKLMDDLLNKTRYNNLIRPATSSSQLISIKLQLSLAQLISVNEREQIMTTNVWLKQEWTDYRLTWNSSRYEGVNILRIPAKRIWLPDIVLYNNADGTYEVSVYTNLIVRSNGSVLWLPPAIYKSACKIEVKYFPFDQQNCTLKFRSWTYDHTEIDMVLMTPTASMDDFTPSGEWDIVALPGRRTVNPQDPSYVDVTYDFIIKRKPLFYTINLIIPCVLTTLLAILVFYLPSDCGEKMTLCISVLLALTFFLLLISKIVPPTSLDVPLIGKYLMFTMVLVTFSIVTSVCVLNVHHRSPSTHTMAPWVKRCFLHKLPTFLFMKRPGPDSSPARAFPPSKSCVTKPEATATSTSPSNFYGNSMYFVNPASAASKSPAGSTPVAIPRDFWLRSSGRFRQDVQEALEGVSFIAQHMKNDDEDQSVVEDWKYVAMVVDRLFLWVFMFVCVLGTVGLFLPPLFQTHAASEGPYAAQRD
T2 sequence (P32297 32-505): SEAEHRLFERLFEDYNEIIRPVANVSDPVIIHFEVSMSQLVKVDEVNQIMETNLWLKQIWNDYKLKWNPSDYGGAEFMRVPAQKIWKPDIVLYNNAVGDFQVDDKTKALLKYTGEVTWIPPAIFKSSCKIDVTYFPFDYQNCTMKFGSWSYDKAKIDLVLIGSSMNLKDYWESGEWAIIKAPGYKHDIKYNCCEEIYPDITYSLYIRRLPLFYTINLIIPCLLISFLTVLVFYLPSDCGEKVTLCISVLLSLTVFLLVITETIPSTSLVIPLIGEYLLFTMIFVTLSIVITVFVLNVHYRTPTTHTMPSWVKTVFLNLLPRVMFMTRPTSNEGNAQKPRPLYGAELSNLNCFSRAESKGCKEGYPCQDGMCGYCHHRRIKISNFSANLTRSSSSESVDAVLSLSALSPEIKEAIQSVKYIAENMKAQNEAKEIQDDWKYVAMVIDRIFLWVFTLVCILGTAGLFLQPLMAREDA

[2] = biological target: T3, human native muscle receptors (Homo sapiens, UniProt P02708+P07510+Q07001); experiment: Ca flux assay, TE-671 cells; type: cell-based
T3 construct: human native muscle-type nicotinic receptors (likely α1β1γδ); endogenous in cells; host or cells: TE-671 (TE671/RD)
T3 sequence (P02708 21-457): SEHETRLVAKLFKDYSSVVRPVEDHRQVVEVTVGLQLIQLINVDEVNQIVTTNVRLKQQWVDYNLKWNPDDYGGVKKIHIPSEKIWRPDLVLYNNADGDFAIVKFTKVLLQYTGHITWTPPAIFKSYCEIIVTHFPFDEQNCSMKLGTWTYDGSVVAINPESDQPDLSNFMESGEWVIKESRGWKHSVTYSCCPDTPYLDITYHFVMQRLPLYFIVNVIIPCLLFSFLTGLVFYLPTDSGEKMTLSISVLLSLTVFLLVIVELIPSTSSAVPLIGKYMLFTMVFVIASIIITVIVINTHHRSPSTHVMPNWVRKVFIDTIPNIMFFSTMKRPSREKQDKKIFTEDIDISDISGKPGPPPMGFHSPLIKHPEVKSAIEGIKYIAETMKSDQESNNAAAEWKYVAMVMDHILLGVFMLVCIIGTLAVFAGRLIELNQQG
T3 sequence (P11230 24-501 partner): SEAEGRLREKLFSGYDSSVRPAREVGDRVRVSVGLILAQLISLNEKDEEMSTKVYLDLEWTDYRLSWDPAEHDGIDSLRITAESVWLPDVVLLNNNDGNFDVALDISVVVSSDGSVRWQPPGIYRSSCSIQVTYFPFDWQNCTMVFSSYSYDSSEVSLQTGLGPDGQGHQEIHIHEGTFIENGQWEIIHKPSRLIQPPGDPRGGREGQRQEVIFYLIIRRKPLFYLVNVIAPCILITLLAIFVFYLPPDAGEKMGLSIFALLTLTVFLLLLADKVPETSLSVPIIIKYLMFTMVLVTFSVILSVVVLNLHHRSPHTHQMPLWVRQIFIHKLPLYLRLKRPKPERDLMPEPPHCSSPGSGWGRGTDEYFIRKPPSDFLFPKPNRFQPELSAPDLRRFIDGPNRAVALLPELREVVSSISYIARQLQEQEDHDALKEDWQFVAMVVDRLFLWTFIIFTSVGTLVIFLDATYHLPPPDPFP
T3 sequence (P07510 23-517): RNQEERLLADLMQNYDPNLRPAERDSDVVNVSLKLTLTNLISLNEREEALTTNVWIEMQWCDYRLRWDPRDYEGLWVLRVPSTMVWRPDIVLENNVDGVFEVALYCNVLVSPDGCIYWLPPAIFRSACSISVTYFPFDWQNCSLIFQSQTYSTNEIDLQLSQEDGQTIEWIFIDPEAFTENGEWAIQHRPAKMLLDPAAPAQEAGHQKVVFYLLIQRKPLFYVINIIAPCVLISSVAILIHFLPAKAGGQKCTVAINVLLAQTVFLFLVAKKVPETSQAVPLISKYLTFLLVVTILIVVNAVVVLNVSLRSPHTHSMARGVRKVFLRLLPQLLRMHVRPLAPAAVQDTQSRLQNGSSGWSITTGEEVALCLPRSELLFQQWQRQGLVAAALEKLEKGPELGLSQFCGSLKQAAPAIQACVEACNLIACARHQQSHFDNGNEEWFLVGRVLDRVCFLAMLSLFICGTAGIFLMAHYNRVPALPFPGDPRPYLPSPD
T3 sequence (Q07001 22-517): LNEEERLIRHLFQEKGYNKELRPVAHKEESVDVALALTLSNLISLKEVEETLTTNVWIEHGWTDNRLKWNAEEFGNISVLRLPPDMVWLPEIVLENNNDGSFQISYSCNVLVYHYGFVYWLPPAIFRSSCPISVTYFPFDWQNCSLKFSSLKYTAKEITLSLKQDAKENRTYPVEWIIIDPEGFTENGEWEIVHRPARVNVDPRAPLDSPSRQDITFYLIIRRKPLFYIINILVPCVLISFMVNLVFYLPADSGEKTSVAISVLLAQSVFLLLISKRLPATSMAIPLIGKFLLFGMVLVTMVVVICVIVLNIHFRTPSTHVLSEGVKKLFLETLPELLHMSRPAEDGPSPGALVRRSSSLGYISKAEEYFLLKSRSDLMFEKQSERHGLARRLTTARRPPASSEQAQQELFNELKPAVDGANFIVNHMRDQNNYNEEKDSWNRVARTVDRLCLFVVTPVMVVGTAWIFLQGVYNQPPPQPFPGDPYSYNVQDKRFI
Excerpt: Activation of muscle-type nAChRs was established on the human clonal line TE671/RD, which is derived from an embryonal rhabdomyosarcoma (Stratton et al., Carcinogen 10: 899 (1989)). These cells express receptors that have pharmacological (Lukas, J. Pharmacol. Exp. Ther. 251: 175 (1989)), electrophysiological (Oswald et al., Neurosci. Lett. 96: 207 (1989)), and molecular biological profiles (Luther et al., J. Neurosci. 9: 1082 (1989)) similar to the muscle-type nAChR.
(R)-3-((E)-2-(Pyrrolidin-3-yl)vinyl)-5-(tetrahydropyran-4-yloxy)pyridine or a salt thereof was tested in ganglion and muscle-type nicotinic receptor ion flux assays to examine functional selectivity.

panel of 65 receptors = experiment: Multiple receptor screening assay; type: binding; settings: single concentration of 10 μM
Protocol: (R)-3-((E)-2-(Pyrrolidin-3-yl)vinyl)-5-(tetrahydropyran-4-yloxy)pyridine or a salt thereof was tested for selectivity against a panel of 65 receptors.

hERG = biological target: T4, hERG (Homo sapiens, UniProt Q12809); experiment: cell-based
T4 construct: expressed in transfected cells; host or cells: HEK-239 (so in the source)

[3] = test system: CYP1A2, CYP2C9, CYP2C19, CYP2D6, CYP3A4 (5 major CYPs); experiment: in vitro; type: in vitro ADME; settings: human
Protocol: Inhibition of CYP1A2, CYP2C9, CYP2C19, CYP2D6 and CYP3A4 catalytic activity by (R)-3-((E)-2-(pyrrolidin-3-yl)vinyl)-5-(tetrahydropyran-4-yloxy)pyridine or a slat thereof was assessed using a fluorogenic CYP assay. Probe substrates which fluoresce upon CYP catalyzed oxidation were used to evaluate the degree of inhibition of the test substrate. A single concentration of each probe substrate (at approximately the apparent Km value) and two different concentrations of (R)-3-((E)-2-(pyrrolidin-3-yl)vinyl)-5-(tetrahydropyran-4-yloxy)pyridine hemigalactarate (2 and 20 μM) were tested in duplicate. Fluorescence intensity at selected wavelengths was used as a measure of enzyme activity. Decreased fluorescence in the presence of (R)-3-((E)-2-(pyrrolidin-3-yl)vinyl)-5-(tetrahydropyran-4-yloxy)pyridine or a sat thereof was an indication of inhibition. […] Duplicate samples were run alongside the positive and negative controls. Incubation of test samples was performed at 37° C. Experimental parameters are outlined in Table 2.

Pgp brain pump = Pgp brain pump (Homo sapiens, UniProt P08183); type: in vitro ADME; settings: not told
α4β2 = α4β2 (Homo sapiens, UniProt P17787+P43681); experiment: Calcium flux assay, SH-EP1/human α4β2 cells; type: cell-based; parameters: expressed in transfected cells; host or cells: SH-EP1
Chain of α4β2 (P43681 29-627 limits assumed): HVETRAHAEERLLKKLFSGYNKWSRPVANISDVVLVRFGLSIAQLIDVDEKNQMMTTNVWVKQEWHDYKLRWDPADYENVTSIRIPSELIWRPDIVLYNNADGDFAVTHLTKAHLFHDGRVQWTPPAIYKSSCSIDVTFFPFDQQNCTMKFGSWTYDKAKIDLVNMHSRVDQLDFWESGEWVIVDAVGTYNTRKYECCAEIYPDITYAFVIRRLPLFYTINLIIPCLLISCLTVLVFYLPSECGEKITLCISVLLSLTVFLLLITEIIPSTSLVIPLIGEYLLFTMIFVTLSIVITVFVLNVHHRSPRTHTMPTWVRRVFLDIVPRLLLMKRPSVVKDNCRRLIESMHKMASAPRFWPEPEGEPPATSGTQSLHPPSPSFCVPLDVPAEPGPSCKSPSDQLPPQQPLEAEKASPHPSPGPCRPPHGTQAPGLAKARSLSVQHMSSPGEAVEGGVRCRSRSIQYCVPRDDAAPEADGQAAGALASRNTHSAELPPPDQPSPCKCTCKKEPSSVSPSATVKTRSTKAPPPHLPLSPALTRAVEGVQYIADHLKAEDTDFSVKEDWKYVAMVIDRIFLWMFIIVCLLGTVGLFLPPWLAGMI
Chain of α4β2 (P17787 26-502): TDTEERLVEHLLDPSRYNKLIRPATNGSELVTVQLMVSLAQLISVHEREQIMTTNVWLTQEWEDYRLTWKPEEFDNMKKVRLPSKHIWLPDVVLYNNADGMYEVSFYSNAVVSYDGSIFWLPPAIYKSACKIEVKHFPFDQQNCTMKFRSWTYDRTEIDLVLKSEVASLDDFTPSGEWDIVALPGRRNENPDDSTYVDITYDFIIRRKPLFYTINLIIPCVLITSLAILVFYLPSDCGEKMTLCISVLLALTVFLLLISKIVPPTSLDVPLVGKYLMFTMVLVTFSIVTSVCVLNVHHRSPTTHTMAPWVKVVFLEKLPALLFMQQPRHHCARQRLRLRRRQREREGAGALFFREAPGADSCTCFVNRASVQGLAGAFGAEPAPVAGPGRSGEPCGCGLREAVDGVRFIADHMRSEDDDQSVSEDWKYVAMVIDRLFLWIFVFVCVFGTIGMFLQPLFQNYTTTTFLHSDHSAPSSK
Excerpt: Cellular efficacy: The aim of these studies was to determine functional activity of (R)-3-((E)-2-(pyrrolidin-3-yl)vinyl)-5-(tetrahydropyran-4-yloxy)pyridine or a salt thereof at human recombinant α4β2 receptors.

T1 sequence (Q05941 23-502): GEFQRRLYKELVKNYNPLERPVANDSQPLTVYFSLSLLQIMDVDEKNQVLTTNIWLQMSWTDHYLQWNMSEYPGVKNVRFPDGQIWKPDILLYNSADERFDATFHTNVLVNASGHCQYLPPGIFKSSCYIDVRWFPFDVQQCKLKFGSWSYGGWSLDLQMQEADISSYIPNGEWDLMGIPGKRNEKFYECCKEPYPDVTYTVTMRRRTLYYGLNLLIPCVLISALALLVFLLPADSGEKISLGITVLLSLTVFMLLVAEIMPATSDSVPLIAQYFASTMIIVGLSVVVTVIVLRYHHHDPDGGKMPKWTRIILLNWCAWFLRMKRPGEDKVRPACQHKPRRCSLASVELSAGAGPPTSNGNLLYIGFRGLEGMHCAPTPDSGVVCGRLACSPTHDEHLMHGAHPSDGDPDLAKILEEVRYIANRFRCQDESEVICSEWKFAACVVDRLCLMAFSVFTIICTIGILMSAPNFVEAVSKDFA

With `C(=C\[C@H]1CCNC1)/c1cncc(OC2CCOCC2)c1` [Compound A, (R)-3-((E)-2-(pyrrolidin-3-yl)vinyl)-5-(tetrahydropyran-4-yloxy)pyridine] the Ki (rat native α7 receptors) was > 10 µM, the Ki (rat native α7 receptors; read-out: Rat hippocampus (α7) Ki, [3H]methyllycaconitine (MLA), rat hippocampal membranes) was > 10 µM and the Ki [1] was 3.4 µM. The EC50 [2] was 13 µM, the “Human (TE671/RD) muscle Emax (Ca flux)” value ([2]; TE-671 cells) was “μM, 37%” and the Emax ([2]; TE-671 cells, read-out: Human (TE671/RD) muscle Emax (Ca flux)) was 37%. For the same compound, the “Multiple receptor screening assay, receptors hit” value (panel of 65 receptors) was “only to neuronal nicotinic receptors (α-BnTx insensitive)”, the “Multiple receptor screening assay, receptors hit” value (panel of 65 receptors; listed as (R)-3-(2-(pyrrolidin-3-yl)vinyl)-5-((tetrahydro-2H-pyran-4 yl)oxy)pyridine) was “Only nicotinic” and the IC50 (hERG) was 84 µM. The IC50 [3] was > 20 µM, the Pgp substrate (Pgp brain pump) was “substrate for Pgp brain pump” and the EC50 (α4β2) was 100 nM. The Emax (α4β2; SH-EP1, read-out: Human recombinant (SH-EP 1) α4β2 Emax (Ca flux)) was 76% and the “Human recombinant (SH-EP 1) α4β2 Emax (Ca flux)” value (α4β2; in relation to 10 μM nicotine, 24-h incubation at 29° C.) was “μM, 76%”.
